# Laboratory results as given in patent US12083082B2, “Methods for treating neurodegenerative disorders” (Alzheon, Inc., priority 2018, dated 2024).
# Where “and” joins values, the source holds several entries; their conditions need not be identical. Equal entries are not always repeated. Where two headings read alike, the source gives them in different places.
# Assay: CSF concentrations of 3-SPA at Week 78 in North American Phase 3 tramiprosate trial (LC-MS/MS)
# Format: in vivo, human
# Details: 150 mg BID tramiprosate; for concentration at 78 week: human, CSF, oral, 150 mg BID
# Procedure: The samples were withdrawn from the freezer and shipped on dry ice to Nextcea Inc. (Woburn, MA) and stored in a freezer set to maintain−80° C. after receipt. The CSF collection and storage were carried out after subjects signed an informed consent in accordance with the ethical guidelines in the Czech Republic and good clinical practice, and according to the widely recognized consensus protocol for the standardization of CSF collection and biobanking (Viola et al., Amyloid β oligomers in Alzheimer's disease pathogenesis, treatment, and diagnosis. Acta Neuropathol 2015; 129:183-206; and Vanderstichele et al. Standardization of preanalytical aspects of cerebrospinal fluid biomarker testing for Alzheimer's disease diagnosis: A consensus paper from the Alzheimer's Biomarkers Standardization Initiative. Alzheimers Dement 2012; 8(1):65-73). Commercial ELISA kits (Innogenetics NV, Ghent, Belgium) were used for dementia biomarker analyses (Aβ1-42, tau protein, and phospho-tau), and cut off values derived from a validation study were used. CSF concentrations of 3-SPA were also quantified in 12 patients receiving the 150 mg BID dose of tramiprosate at Week 78 of the Phase 3 North American AD trial.
# The 3-SPA reference material and human CSF samples were mixed with N-ethyl-N′-(3-dimethylaminopropyl) carbodiimide (EDC) and 2,2,2-trifluro ethylamine (TFEA). The samples were vortexed and reacted at room temperature for 30 minutes. The reactions were centrifuged at 4500 rpm for 5 minutes. The supernatant was transferred to a new plate for analysis. 3-SPA was identified and characterized using LC-MS and LC-MS/MS. Injections were made onto a Thermo Scientific AQUASIL 5 μm, 50×2.1 mm column using a Shimadzu autosampler and UPLC pump. Mobile phase A was 0.1% trifluoroacetic acid in water (v/v). Mobile phase B was 0.1% formic acid in 90/10 acetonitrile/water (v/v). The flow rate was 0.35 mL/min. The total running time per sample was 4 min. An API 6500 triple quadrupole mass spectrometer was used for detection. Data were acquired in negative LC-MS and LC-MS/MS modes. Representative chromatograms of 3-SPA in crude native material and human CSF derivatized with EDC and TFEA are shown in FIG. 7, FIG. 8 Panel A, and FIG. 8 Panel B. LC-MS and LC-MS/MS data were acquired using Analyst software (AB Sciex, Foster City, CA). LOQ for the LC-MS/MS method was 0.1 ng/ml with a dynamic range of 0.1 to 1000 ng/ml (r=0.99688 and % CV 5.8%±2.0; data on file). 3-SPA was identified in human CSF by matching the chromatographic retention time and by co-elution of the LC-MS/MS transition ions to the authentic 3-SPA reference standard (synthesized by Paraza Pharma, Montreal, Canada).
# The levels of 3-SPA of in patients with a variety of cognition impairing diseases, including AD, ranged from 4.15 to 27.7 nM (0.64-4.27 ng/ml) (Table 1). When related to the CSF concentrations of Aβ42 monomers in AD patients (0.04 nM to 0.1 nM) (Bakan et al., ProDy: protein dynamics inferred from theory and experiments. Bioinformatics 2011; 27:1575-7; Shaw et al. Cerebrospinal fluid biomarker signature in Alzheimer's disease neuroimaging initiative subjects. Ann Neurol 2009; 65:403-13; Pannee et al. Reference measurement procedure for CSF Abeta1-42 and the CSF Abeta1-42/Abeta1-40 ratio—a crossvalidation study against Amyloid PET. J. Neurochem 2016; and Lambert et al. Diffusible, nonfibrillar ligands derived from A 1-42 are potent central nervous system neurotoxins. PNAS. 1998; 95:6448-53), there is an approximately 40-700 fold excess of 3-SPA over soluble Aβ42 monomers, which falls within the range where partial Aβ anti-oligomer aggregation activity may occur in some patients (Table 3). Furthermore, retrospective analyses of the CSF of a subset of patients from the tramiprosate Phase 3 trial were also evaluated for presence of 3-SPA, the primary metabolite of tramiprosate. […]
smiles,measurement,setting,value
"O=C(O)CCS(=O)(=O)O [3-SPA, 3-sulfopropanoic acid]","CSF concentration of 3-SPA, Median",Week 78,19.3 ng/ml and 127.5 nM
same,"CSF concentration of 3-SPA, Minimum-maximum",Week 78,17.3-35.7 ng/ml and 114.3-235.8 nM
same,increase of mean CSF 3-SPA over levels observed in drug naïve patients,Week 78,12.6 fold
same,"CSF concentration of 3-SPA, Mean ± SD","Week 78, n=6",22.3 ± 7.9 ng/ml and 147 ± 51.3 nM
same,concentration at 78 week,"Week 78, n=6, read-out: CSF concentration of 3-SPA, Mean ± SD",147 nM
same,concentration at 78 week,"Week 78, read-out: CSF concentration of 3-SPA, Minimum-maximum",114 to 236 nM
